Results published in US20220024851A1, “CRYSTALLINE FORMS OF MULTICYCLIC COMPOUNDS AND USES THEREOF” (Convelo Therapeutics, Inc., priority 2018, published 2022).
Counter-ions that a name gives are not always drawn.

How the values were obtained:
Format in all cases: physicochemical
[1] = Aqueous kinetic solubility by aliquot addition method; details: water; for Kinetic Solubility / solubility kinetic: ambient temperature, visual dissolution
Description: Generated solids were typically observed by polarized light microscopy and, if crystalline (i.e. display birefringence and extinction), analyzed by XRPD. The XRPD patterns were compared to each other and to available reference patterns of salt formers. If unique by XRPD, the materials were further analyzed by ^1H NMR, TGA, DSC, and DVS. Kinetic solubilities of selected materials were estimated by aliquot addition method. Equilibrium solubilities were estimated gravimetrically using supernatants from suspensions equilibrated at ambient temperature for approximately 7-10 days.
Weighed samples of material were treated with aliquots of water at ambient temperature. Samples were typically sonicated between additions to facilitate dissolution. Complete dissolution was observed through visual inspection. Solubilities were calculated based on the total amount of solvent added to achieve complete dissolution and may be greater than the value reported due to incremental solvent addition and the inherent kinetics of dissolution. If dissolution was not observed, values are reported as “less than”. If complete dissolution was observed upon the first aliquot of solvent, values are reported as “greater than”.
Kinetic solubility was estimated by aliquot addition method, and dissolution was judged by visual observations. If dissolution was not observed, values are reported as “less than.” If complete dissolution was observed upon the first aliquot of solvent, values are reported as “greater than.” Kinetic solubility of selected salts is presented in Table 8.

[2] = Dynamic vapor sorption (DVS) / hygroscopicity; details: for Desorption, hysteresis and form change after moisture sorption-desorption: moisture sorption-desorption cycles, XRPD
Procedure: The crystalline forms provided can be additionally characterized by dynamic vapor sorption (DVS), wherein a sample is subjected to varying conditions of humidity and temperature, and the response of the sample is measured gravimetrically. The result of a DVS analysis particularly can be a dual curve providing sample weight percent as a function of relative humidity (RH) over time, a dual curve providing sample water content as a function of RH over time, a curve providing weight percent in relation to RH, or a curve providing water content in relation to RH. Equipment useful for measuring such data is known in the art, and any such equipment can be used to measure the compounds according to the present invention. In certain embodiments, DVS analysis can be carried out by scanning at a series of specific RH values. Thus, specific crystalline forms according to the invention may be identified and described in relation to the representative graph and/or the approximate peaks obtained in DVS analysis, particularly scanning from 0% to 95% RH with a step interval of 5% or 10% RH.
Hygroscopicities of the materials described in the present disclosure are classified according to Table 1
DVS data were collected on a VTI SGA-100 Vapor Sorption Analyzer. NaCl and PVP were used as calibration standards. Samples were not dried prior to analysis. Sorption and desorption data were collected over a range from 5% to 95% RH at 10% RH increments under a nitrogen purge. The equilibrium criterion used for analysis was less than 0.0100% weight change in 5 minutes with a maximum equilibration time of 3 hours. Data were not corrected for the initial moisture content of the samples.

[3] = Thermogravimetric analysis (TGA), thermal decomposition; details: for Decomposition onset: TGA, heated under nitrogen
Procedure: TGA is a method of thermal gravimetric analysis in which changes in physical and chemical properties of a material are measured as a function of increasing temperature (with constant heating rate) or as a function of time (with constant temperature and/or constant mass loss). TGA can provide information about physical phenomena, such as second-order phase transitions, or about chemical phenomena, such as desolvation and/or decomposition.
TG analyses described herein were performed using a Mettler Toledo TGA/DSC3+ analyzer. Balance check was performed using calcium oxalate, and temperature calibration was performed using indium, tin, and zinc. The sample was placed in an aluminum pan. The sample was sealed, the lid pierced, then inserted into the TG furnace. The furnace was heated under nitrogen.

[4] = upon increase of RH / entire RH range

Compound	Kinetic Solubility [1] [µg/mL]	Kinetic Solubility ([1]; listed as Besylate slat) [µg/mL]	DVS weight gain ([2]; 5-85% RH)	DVS weight gain ([2]; 85-95% RH)	Desorption, hysteresis and form change after moisture sorption-desorption [2]	Hygroscopicity [2, 4]	Decomposition onset [3] [°C]	DVS weight gain ([2]; 5-75% RH)	DVS weight gain ([2]; 75-95% RH)	Hygroscopicity ([2]; above 75% RH)	Hygroscopicity ([2]; below 75% RH)	solubility kinetic [1] [µg/mL]	fold more soluble than all other crystalline salts isolated (kinetic solubility) ([1]; vs other crystalline salts)	DVS weight gain ([2]; 5 to 95% RH)	DVS weight gain ([2]; 5-95% RH)	Hygroscopicity ([2]; upon increase of RH / entire RH range, listed as salicylate)	Thermal stability [3]	Hygroscopicity ([2]; above 65% RH)	Hygroscopicity ([2]; below 65% RH)
CCN(C/C=C\c1ccc(C2CCCCC2)c(Cl)c1)C1CCCCC1.O=S(=O)(O)c1ccccc1 [Besylate salt, Besylate Salt of Cis-N-cyclohexyl-N-ethyl-3-(3-chloro-4-cyclohexylphenyl)prop-2-enylamine]	<600	< 1000	about 0.88%	about 0.85%	complete desorption without form change and with almost no hysteresis	limited hygroscopicity	274	–	–	–	–	–	–	–	–	–	–	–	–
CCN(C/C=C\c1ccc(C2CCCCC2)c(Cl)c1)C1CCCCC1.O=S(=O)(O)CCS(=O)(=O)O [Edisylate salt, Edisylate Salt of Cis-N-cyclohexyl-N-ethyl-3-(3-chloro-4-cyclohexylphenyl)prop-2-enylamine]	–	–	–	–	form change to a highly disordered material	–	260	about 0.35%	about 18.55%	significant hygroscopicity and deliquesces	non-hygroscopic	–	–	–	–	–	–	–	–
CCN(C/C=C\c1ccc(C2CCCCC2)c(Cl)c1)C1CCCCC1.CCS(=O)(=O)O [Esylate salt, Esylate Salt of Cis-N-cyclohexyl-N-ethyl-3-(3-chloro-4-cyclohexylphenyl)prop-2-enylamine]	–	–	about 0.35%	0.51%	complete desorption without hysteresis or form change	limited hygroscopicity	268	–	–	–	–	30000	more than 30 fold	about 0.9 wt %	–	–	–	–	–
CCN(C/C=C\c1ccc(C2CCCCC2)c(Cl)c1)C1CCCCC1 [Salicylate salt, Salicylate Salt of Cis-N-cyclohexyl-N-ethyl-3-(3-chloro-4-cyclohexylphenyl)prop-2-enylamine]	–	–	–	–	–	non-hygroscopic	212	–	–	–	–	< 1000	–	about 0.04 wt %	about 0.04%	lack of hygroscopicity	thermally stable	–	–
CCN(C/C=C\c1ccc(C2CCCCC2)c(Cl)c1)C1CCCCC1.O=C(O)c1ccc2ccccc2c1O [Xinafoate salt, Xinafoate Salt of Cis-N-cyclohexyl-N-ethyl-3-(3-chloro-4-cyclohexylphenyl)prop-2-enylamine]	–	–	about 0.88%	about 0.85%	A form change is suggested	–	146	–	–	–	–	–	–	–	–	–	–	limited hygroscopicity	non-hygroscopic
